Our source for the pest or weed control and YFM rating values is patent publication US10251394B2, “Molecules having pesticidal utility, and intermediates, compositions, and processes, related thereto” (Dow AgroSciences LLC, priority 2016, dated 2019).

Common to all, as to type: in vivo
Test [1] relates to Cabbage Looper (Trichoplusia ni). Put plainly: Bioassay on Cabbage Looper (CL), 128-well diet tray assay. Conditions: Cabbage Looper, Table ABC, read-out: CL rating. The gist of the method:
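Mortality after five to seven days at 25° C (14:10 photoperiod), averaged over eight wells per compound. Diet in each well carried 50 μg/cm^2 of dried test molecule and received one to five second-instar larvae.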

For test [2], the system named is Yellow Fever Mosquito (Aedes aegypti). Put plainly: Bioassay on Yellow Fever Mosquito (YFM) larvae, 96-well plate. Conditions: Table ABC. The gist of the method:
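About 1-day-old larvae in water with liver powder were added to wells holding compound from a 4000 ppm DMSO master diluted in 90:10 water:acetone. Plates covered and kept at room temperature for 3 days, then each well scored for mortality on a rating scale.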

Test [3] concerns Beet Armyworm (Spodoptera exigua). The experiment in a line: Bioassay on Beet Armyworm (BAW), 128-well diet tray assay. Conditions: Beet Armyworm, Table ABC, read-out: BAW rating. The gist of the method: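 Percent mortality, averaged over eight wells, was scored after five to seven days at 25° C under 14:10 light-dark. Each well's diet carried 50 μg/cm^2 of test molecule applied in acetone-water (90:10) and dried before one to five second-instar larvae were added.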

On to `O=C(N[C@@H]1CON(CC(F)(F)F)C1=O)c1ccc(/C(F)=C/C(c2cc(Cl)c(C(F)F)c(Cl)c2)C(F)(F)F)cc1C(F)(F)F` (stereo partly drawn) [F143, 4-((2)-3-(3,5-Dichloro-4-(difluoromethyl)phenyl)-1,4,4,4-tetrafluorobut-1-en-1-yl)-N—((R)-3-oxo-2-(2,2,2-trifluoroethyl)isoxazolidin-4-yl)-2-(trifluoromethyl)benzamide], for which the pest or weed control at 50 µg/cm2 in test [1] and in test [3] was 50 to 100% throughout. For the same compound, the YFM rating result in test [2] is “A (80-100)”.
For `C/C=C/c1c(Cl)cc(C(/C=C(\F)c2ccc(C(=O)N[C@H](C)C(=O)NCC(F)(F)F)c(C(F)(F)F)c2)C(F)(F)F)cc1Cl` (stereo partly drawn) [F147, 4-((Z)-3-(3,5-Dichloro-4-((E)-prop-1-en-1-yl)phenyl)-1,4,4,4-tetrafluorobut-1-en-1-yl)-N—((R)-1-oxo-1-((2,2,2-trifluoroethyl)amino)propan-2-yl)-2-(trifluoromethyl)benzamide], the pest or weed control at 50 µg/cm2 in test [1] and in test [3] was 50 to 100% each time. Moreover, the YFM rating result in test [2] is “A (80-100)”.
`O=C(CNC(=O)c1ccc(/C(F)=C/C(c2cc(F)c(F)c(Cl)c2)C(F)(F)F)cc1C(F)(F)F)NCC(F)(F)F` (stereo not drawn) [F153, (Z)-4-(3-(3-Chloro-4,5-difluorophenyl)-1,4,4,4-tetrafluorobut-1-en-1-yl)-N-(2-oxo-2-((2,2,2-trifluoroethyl)amino)ethyl)-2-(trifluoromethyl)benzamide]: the pest or weed control at 50 µg/cm2 in test [1] and in test [3] was 50 to 100% in each case. The YFM rating entry in test [2] is recorded as “A (80-100)”.
Regarding `O=C(CNC(=O)c1ccc(/C(F)=C/C(c2cc(F)cc(Cl)c2)C(F)(F)F)cc1C(F)(F)F)NCC(F)(F)F` (stereo not drawn) [F157, (Z)-4-(3-(3-Chloro-5-fluorophenyl)-1,4,4,4-tetrafluorobut-1-en-1-yl)-N-(2-oxo-2-((2,2,2-trifluoroethyl)amino)ethyl)-2-(trifluoromethyl)benzamide], the pest or weed control at 50 µg/cm2 in test [1] and in test [3] was 50 to 100% in each case. Further, the YFM rating entry in test [2] is “A (80-100)”.
For the compound `C[C@@H](NC(=O)c1ccc(/C(F)=C/C(c2cc(F)c(F)c(F)c2)C(F)(F)F)cc1C(F)(F)F)C(=O)NCC(F)(F)F` (stereo partly drawn) [F159, N—((R)-1-Oxo-1-((2,2,2-trifluoroethyl)amino)propan-2-yl)-4-((Z)-1,4,4,4-tetrafluoro-3-(3,4,5-trifluorophenyl)but-1-en-1-yl)-2-(trifluoromethyl)benzamide], the pest or weed control at 50 µg/cm2 in test [1] and in test [3] was 50 to 100% in each case. For the same compound, in test [2], the YFM rating entry is recorded as “A (80-100)”.
In the case of `COc1ccc(C(/C=C(\F)c2ccc(C(=O)N[C@H](C)C(=O)NCC(F)(F)F)c(C(F)(F)F)c2)C(F)(F)F)cc1Cl` (stereo partly drawn) [F161, 4-((Z)-3-(3-Chloro-4-methoxyphenyl)-1,4,4,4-tetrafluorobut-1-en-1-yl)-N—((R)-1-oxo-1-((2,2,2-trifluoroethyl)amino)propan-2-yl)-2-(trifluoromethyl)benzamide], the pest or weed control at 50 µg/cm2 in test [1] and in test [3] was 50 to 100% throughout. Also, the YFM rating entry in test [2] is on record as “A (80-100)”.
On to `CC(=O)CNC(=O)CNC(=O)c1ccc(/C(F)=C/C(c2cc(Cl)c(Cl)c(Cl)c2)C(F)(F)F)cc1C(F)(F)F` (stereo not drawn) [F163, (Z)—N-(2-Oxo-2-((2-oxopropyl)amino)ethyl)-4-(1,4,4,4-tetrafluoro-3-(3,4,5-trichlorophenyl)but-1-en-1-yl)-2-(trifluoromethyl)benzamide], for which the pest or weed control at 50 µg/cm2 in test [1] and in test [3] was 50 to 100% each time. In addition, in test [2], the YFM rating result is on record as “A (80-100)”.
